Reference: patent US20250186405A1, “Compound For Use In Treating Narcolepsy” (Alkermes, Inc., priority 2023, published 2025)

Tested on: subjects with narcolepsy type-2 (NT2)
Test: Part 5 POC NT2: treatment-emergent adverse events, single doses, crossover
[1] = Total (any Compound A dose), N = 9

Experimental: Part 5 consisted of a 4-way, 4-period crossover study design in approximately 8 subjects (2 subjects per sequence; minimum of 4 subjects with 1 subject per sequence). Subjects were randomized 1:1:1:1 to 1 of 4 sequences with 4 treatment periods (3 single doses of Compound A and 1 dose of matching placebo), with up to 48 hours of washout between treatments. Treatments were administered under fasted state.
Subjects were randomized to 1 of 4 sequences. […] In each period, subjects were administered a single dose of study drug (either Compound A or placebo) as per the randomization schedule with approximately 240 mL of noncarbonated water following overnight fasting. No food was given for at least 3 hours after dose administration (i.e., fast can be broken after the 3-hour PK time point is collected). Water was allowed ad libitum except for 1 hour before and 1 hour after study drug administration. Safety assessments including AEs, safety ECGs, vital signs, and clinical laboratory tests were conducted, and plasma PK samples were collected. Furthermore, BP and HR were monitored once every hour for 12 hours on the dosing days.
Adverse events (AEs) and serious adverse events (SAEs) were monitored continuously until the completion of the study.
Nine subjects with NT2 were dosed in Part 5 (POC in NT2) in a randomized 4-sequence 4-period cross-over design. Each dose of Compound A or matching placebo was separated by 2 days. A 14-day washout period preceded the treatment period and included discontinuation of narcolepsy medications. All 9 subjects underwent the washout period and received at least one dose of Compound A. All subjects completed all 4-way randomized crossover periods.

## CS(=O)(=O)N[C@H]1CCCN2C(=O)COc3ccccc3C3CCC(CC3)OCC12 (stereo partly drawn) [Compound A, N-[(4S,4aR,7α,10α)-1,2,3,4,4a,5,7,8,9,10,16,17-dodecahydro-17-oxo-7,10-ethanopyrido[1,2-d][1,7,4]benzodioxaazacyclotridecin-4-yl]methanesulfonamide]
25 mg single dose, N = 9
  Any SAEs: 0 n (%)
  Any TEAE: 7 (77.8) n (%)
  Death: 0 n (%)
  Drug Related TEAE by Preferred Term: Altered state of consciousness: 0 n (%)
  Drug Related TEAE by Preferred Term: Dizziness: 2 (22.2) n (%)
  Drug Related TEAE by Preferred Term: Dizziness postural: 1 (11.1) n (%)
  Drug Related TEAE by Preferred Term: Feeling jittery: 1 (11.1) n (%)
  Drug Related TEAE by Preferred Term: Headache: 1 (11.1) n (%)
  Drug Related TEAE by Preferred Term: Initial insomnia: 0 n (%)
  Drug Related TEAE by Preferred Term: Insomnia: 2 (22.2) n (%)
  Drug Related TEAE by Preferred Term: Photophobia: 1 (11.1) n (%)
  Drug Related TEAE by Preferred Term: Pollakiuria: 3 (33.3) n (%)
  Drug Related TEAE by Preferred Term: Tachycardia: 0 n (%)
  Drug Related TEAE by Preferred Term: Urinary incontinence: 1 (11.1) n (%)
  Subjects with at least one TEAE: 7 (77.8) n (%)
  Subjects with at least one treatment-related TEAE: 6 (66.7) n (%)
  TEAE by Highest Relationship: Not Related: 1 (11.1) n (%)
  TEAE by Highest Relationship: Related: 6 (66.7) n (%)
  TEAE by Highest Severity: Mild: 6 (66.7) n (%)
  TEAE by Highest Severity: Moderate: 1 (11.1) n (%)
  TEAE by Highest Severity: Severe: 0 n (%)
  TEAE by Preferred Term: Altered state of consciousness: 0 n (%)
  TEAE by Preferred Term: Constipation: 0 n (%)
  TEAE by Preferred Term: Contusion: 1 (11.1) n (%)
  TEAE by Preferred Term: Dizziness: 2 (22.2) n (%)
  TEAE by Preferred Term: Dizziness postural: 1 (11.1) n (%)
  TEAE by Preferred Term: Dry skin: 0 n (%)
  TEAE by Preferred Term: Feeling jittery: 1 (11.1) n (%)
  TEAE by Preferred Term: Headache: 1 (11.1) n (%)
  TEAE by Preferred Term: Initial insomnia: 0 n (%)
  TEAE by Preferred Term: Insomnia: 2 (22.2) n (%)
  TEAE by Preferred Term: Nasal dryness: 1 (11.1) n (%)
  TEAE by Preferred Term: Nausea: 0 n (%)
  TEAE by Preferred Term: Photophobia: 1 (11.1) n (%)
  TEAE by Preferred Term: Pollakiuria: 3 (33.3) n (%)
  TEAE by Preferred Term: Rash: 0 n (%)
  TEAE by Preferred Term: Skin lesion: 0 n (%)
  TEAE by Preferred Term: Tachycardia: 0 n (%)
  TEAE by Preferred Term: Urinary incontinence: 1 (11.1) n (%)
NT2, 5, 12 and 25 mg
  Tolerability: well tolerated
NT2, N = 9, all periods
  Subjects with at least one TEAE: 77.8%
[1]
  AE Leading to Study Drug Discontinuation: 0 n (%)
  Any SAEs: 0 n (%)
  Any TEAE: 7 (77.8) n (%)
  Death: 0 n (%)
  Drug Related TEAE by Preferred Term: Altered state of consciousness: 0 n (%)
  Drug Related TEAE by Preferred Term: Dizziness: 2 (22.2) n (%)
  Drug Related TEAE by Preferred Term: Dizziness postural: 1 (11.1) n (%)
  Drug Related TEAE by Preferred Term: Feeling jittery: 1 (11.1) n (%)
  Drug Related TEAE by Preferred Term: Headache: 1 (11.1) n (%)
  Drug Related TEAE by Preferred Term: Initial insomnia: 1 (11.1) n (%)
  Drug Related TEAE by Preferred Term: Insomnia: 2 (22.2) n (%)
  Drug Related TEAE by Preferred Term: Photophobia: 1 (11.1) n (%)
  Drug Related TEAE by Preferred Term: Pollakiuria: 3 (33.3) n (%)
  Drug Related TEAE by Preferred Term: Tachycardia: 0 n (%)
  Drug Related TEAE by Preferred Term: Urinary incontinence: 1 (11.1) n (%)
  Subjects with at least one TEAE: 7 (77.8) n (%)
  Subjects with at least one treatment-related TEAE: 6 (66.7) n (%)
  TEAE by Highest Relationship: Not Related: 1 (11.1) n (%)
  TEAE by Highest Relationship: Related: 6 (66.7) n (%)
  TEAE by Highest Severity: Mild: 6 (66.7) n (%)
  TEAE by Highest Severity: Moderate: 1 (11.1) n (%)
  TEAE by Highest Severity: Severe: 0 n (%)
  TEAE by Preferred Term: Altered state of consciousness: 0 n (%)
  TEAE by Preferred Term: Constipation: 1 (11.1) n (%)
  TEAE by Preferred Term: Contusion: 1 (11.1) n (%)
  TEAE by Preferred Term: Dizziness: 2 (22.2) n (%)
  TEAE by Preferred Term: Dizziness postural: 1 (11.1) n (%)
  TEAE by Preferred Term: Dry skin: 1 (11.1) n (%)
  TEAE by Preferred Term: Feeling jittery: 1 (11.1) n (%)
  TEAE by Preferred Term: Headache: 1 (11.1) n (%)
  TEAE by Preferred Term: Initial insomnia: 1 (11.1) n (%)
  TEAE by Preferred Term: Insomnia: 2 (22.2) n (%)
  TEAE by Preferred Term: Nasal dryness: 1 (11.1) n (%)
  TEAE by Preferred Term: Nausea: 1 (11.1) n (%)
  TEAE by Preferred Term: Photophobia: 1 (11.1) n (%)
  TEAE by Preferred Term: Pollakiuria: 3 (33.3) n (%)
  TEAE by Preferred Term: Rash: 1 (11.1) n (%)
  TEAE by Preferred Term: Skin lesion: 1 (11.1) n (%)
  TEAE by Preferred Term: Tachycardia: 0 n (%)
  TEAE by Preferred Term: Urinary incontinence: 1 (11.1) n (%)
